Laboratory results from article PMC2833271 (Neuropsychopharmacology : official publication of the …, 2009).
“Also recorded” adds a separate entry of the source. Where two headings read alike, the source gives them in different places.

What was measured:
[1] = target: T1, brain MAO-A (Homo sapiens, UniProt P21397); test: PET imaging of [11C]clorgyline binding; type: in vivo
T1 sequence (P21397 1-527): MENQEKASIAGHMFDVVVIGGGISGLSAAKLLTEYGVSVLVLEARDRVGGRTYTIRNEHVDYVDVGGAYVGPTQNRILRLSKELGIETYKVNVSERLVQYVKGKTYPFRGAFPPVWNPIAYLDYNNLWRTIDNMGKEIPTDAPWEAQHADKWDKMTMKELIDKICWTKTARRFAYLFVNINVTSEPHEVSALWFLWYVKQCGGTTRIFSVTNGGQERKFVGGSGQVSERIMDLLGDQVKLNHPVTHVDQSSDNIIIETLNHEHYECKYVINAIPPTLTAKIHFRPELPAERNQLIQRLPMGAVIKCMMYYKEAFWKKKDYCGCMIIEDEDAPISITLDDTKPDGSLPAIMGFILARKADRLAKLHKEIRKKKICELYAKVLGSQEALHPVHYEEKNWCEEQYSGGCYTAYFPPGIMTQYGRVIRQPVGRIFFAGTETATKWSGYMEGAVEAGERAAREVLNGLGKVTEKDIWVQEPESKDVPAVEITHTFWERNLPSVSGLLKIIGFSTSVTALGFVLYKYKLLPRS

[2] = system: MAO-A; settings: in human brain; ref data on file, CeNeRx Biopharma, Cary, NC; cited from earlier work
[3] = Plasma CX157 concentration and pharmacokinetics; type: in vivo, human; settings: for concentration at 2 h / concentration at 5 h / concentration at 12 h / concentration at 8 h: oral; for Plasma CX157: single subject value
[4] = Adverse events in study subjects; type: in vivo, human; settings: 15 normal men, oral CX157 20-80 mg
[5] = target: T1, brain MAO-A; test: Emax model of brain MAO-A inhibition vs plasma CX157 concentration; type: in vivo
[6] = target: T1, brain MAO-A; settings: [11C]harmine PET; ref Bergström et al, 1997; cited from earlier work

O=S1(=O)c2ccc(F)cc2Oc2cc(OCC(F)(F)F)ccc21 [CX157, 3-fluoro-7-(2,2,2-trifluoroethoxy)phenoxathiin-10,10-dioxide]
inhibition of MAO-A ([1]; 40 mg CX157, first two subjects): ~ 60% | inhibition of [11C]clorgyline binding to brain MAO-A ([1]; 60 and 80 mg oral doses, 2 h after administration): 47–72% | recovery of brain MAO-A activity ([1]; 24 h post drug (single dose, 40 mg)): recovered completely; also recorded: Complete recovery to baseline values | inhibition at 40 mg ([1]; read-out: % MAO-A inhibition (inhibition of [11C]clorgyline binding, λk3), multi-dose 40 mg BID 7 days, n = 3, 12 h post dose): 23.1 ± 3.7% | inhibition at 40 mg ([1]; read-out: % MAO-A inhibition (inhibition of [11C]clorgyline binding, λk3), multi-dose 40 mg BID, 10 h, single subject value): 27.3% | % MAO-A inhibition (inhibition of [11C]clorgyline binding, λk3) ([1]; single dose 20 mg, n = 2, 2 h after CX157): 18.5 ± 10.6% | % MAO-A inhibition (inhibition of [11C]clorgyline binding, λk3) ([1]; single dose 20 mg, n = 2, 5 h after CX157): 18.8 ± 6.7% | % MAO-A inhibition (inhibition of [11C]clorgyline binding, λk3) ([1]; single dose 20 mg, n = 2, 12 h after CX157): 12.4 ± 10.8% | % MAO-A inhibition (inhibition of [11C]clorgyline binding, λk3) ([1]; single dose 40 mg, n = 3, 2 h after CX157): 54.7 ± 8.9% | % MAO-A inhibition (inhibition of [11C]clorgyline binding, λk3) ([1]; single dose 40 mg, n = 3, 12 h after CX157): 6.8 ± 14.6% | % MAO-A inhibition (inhibition of [11C]clorgyline binding, λk3) ([1]; single dose 40 mg, n = 3, 24 h after CX157): −1.8 ± 0.7% | % MAO-A inhibition (inhibition of [11C]clorgyline binding, λk3) ([1]; single dose 40 mg, 5 h after CX157, single subject value): 34.5% | % MAO-A inhibition (inhibition of [11C]clorgyline binding, λk3) ([1]; single dose 40 mg, 8 h after CX157, single subject value): 6.5% | % MAO-A inhibition (inhibition of [11C]clorgyline binding, λk3) ([1]; single dose 60 mg, n = 3, 5 h after CX157): 31.6 ± 27.4% | % MAO-A inhibition (inhibition of [11C]clorgyline binding, λk3) ([1]; single dose 60 mg, n = 3, 8 h after CX157): 23.4 ± 30.0% | % MAO-A inhibition (inhibition of [11C]clorgyline binding, λk3) ([1]; single dose 60 mg, n = 3, 12 h after CX157): 17.6 ± 17.9% | % MAO-A inhibition (inhibition of [11C]clorgyline binding, λk3) ([1]; single dose 80 mg, n = 4, 2 h after CX157): 72.3 ± 8.7% | % MAO-A inhibition (inhibition of [11C]clorgyline binding, λk3) ([1]; single dose 80 mg, n = 4, 5 h after CX157): 48.6 ± 12.1% | % MAO-A inhibition (inhibition of [11C]clorgyline binding, λk3) ([1]; single dose 80 mg, n = 4, 8 h after CX157): 30.4 ± 8.9% | % MAO-A inhibition (inhibition of [11C]clorgyline binding, λk3) ([1]; single dose 80 mg, 12 h after CX157, single subject value): 43.1% | peak inhibition of [11C]clorgyline binding ([1]; single doses, all dose groups except 20 mg, 2-h time point): 47–72% | MAO-A inhibiting activity [2]: 3.3 nM | concentration at 2 h ([3]; male, human, plasma, 20 mg, Average plasma CX157, single dose 20 mg, n = 2, 2 h): 18.5 ± 3.3 ng/mL | concentration at 5 h ([3]; male, human, plasma, 20 mg, Average plasma CX157, single dose 20 mg, n = 2, 5 h): 18.8 ± 1.1 ng/mL | concentration at 12 h ([3]; male, human, plasma, 20 mg, Average plasma CX157, single dose 20 mg, n = 2, 12 h): 12.4 ± 0.7 ng/mL | concentration at 2 h ([3]; male, human, plasma, 40 mg, Average plasma CX157, multi-dose 40 mg BID, n = 3, 2 h): 48.3 ± 11.3 ng/mL | concentration at 5 h ([3]; male, human, plasma, 40 mg, Average plasma CX157, multi-dose 40 mg BID, n = 3, 5 h): 34.1 ± 5.8 ng/mL | concentration at 8 h ([3]; male, human, plasma, 40 mg, Average plasma CX157, multi-dose 40 mg BID, n = 3, 8 h): 32.2 ± 4.4 ng/mL | concentration at 12 h ([3]; male, human, plasma, 40 mg, Average plasma CX157, multi-dose 40 mg BID, n = 3, 12 h): 23.1 ± 1.4 ng/mL | concentration at 2 h ([3]; male, human, plasma, 40 mg, Average plasma CX157, single dose 40 mg, n = 3, 2 h): 54.7 ± 18.5 ng/mL | concentration at 12 h ([3]; male, human, plasma, 40 mg, Average plasma CX157, single dose 40 mg, n = 3, 12 h): 6.8 ± 1.5 ng/mL | concentration at 2 h ([3]; male, human, plasma, 60 mg, Average plasma CX157, single dose 60 mg, n = 3, 2 h): 46.8 ± 84.4 ng/mL | concentration at 5 h ([3]; male, human, plasma, 60 mg, Average plasma CX157, single dose 60 mg, n = 3, 5 h): 31.6 ± 37.4 ng/mL | concentration at 8 h ([3]; male, human, plasma, 60 mg, Average plasma CX157, single dose 60 mg, n = 3, 8 h): 23.4 ± 8 ng/mL | concentration at 12 h ([3]; male, human, plasma, 60 mg, Average plasma CX157, single dose 60 mg, n = 3, 12 h): 17.6 ± 6.6 ng/mL | concentration at 2 h ([3]; male, human, plasma, 80 mg, Average plasma CX157, single dose 80 mg, n = 4, 2 h): 72.3 ± 58.8 ng/mL | concentration at 5 h ([3]; male, human, plasma, 80 mg, Average plasma CX157, single dose 80 mg, n = 4, 5 h): 48.6 ± 25 ng/mL | concentration at 8 h ([3]; male, human, plasma, 80 mg, Average plasma CX157, single dose 80 mg, n = 4, 8 h): 30.4 ± 5.2 ng/mL | half-life ([3]; male, human, plasma, po): 360 ± 204 min | Plasma CX157 range ([3]; multi-dose 40 mg BID, n = 3, 2 h): 24.5 to 45 ng/mL | Plasma CX157 range ([3]; multi-dose 40 mg BID, n = 3, 5 h): 13.1 to 24.7 ng/mL | Plasma CX157 range ([3]; multi-dose 40 mg BID, n = 3, 8 h): 10.8 to 19.5 ng/mL | Plasma CX157 range ([3]; multi-dose 40 mg BID, n = 3, 12 h): 9 to 11 ng/mL | Plasma CX157 ([3]; multi-dose 40 mg BID, 10 h): 6.9 ng/mL | Plasma CX157 range ([3]; single dose 20 mg, n = 2, 2 h): 3.8 to 8.1 ng/mL | Plasma CX157 range ([3]; single dose 20 mg, n = 2, 5 h): 1.9 to 3.4 ng/mL | Plasma CX157 range ([3]; single dose 20 mg, n = 2, 12 h): 0.6 to 1.6 ng/mL | Plasma CX157 range ([3]; single dose 40 mg, n = 3, 2 h): 18.4 to 55.1 ng/mL | Plasma CX157 range ([3]; single dose 40 mg, n = 3, 12 h): 0.9 to 3.9 ng/mL | Average plasma CX157 ([3]; single dose 40 mg, n = 3, 24 h): 2.8 ± 1.3 ng/mL | Plasma CX157 range ([3]; single dose 40 mg, n = 3, 24 h): 1.8 to 3.7 ng/mL | Plasma CX157 ([3]; single dose 40 mg, 5 h): 8.4 ng/mL | Plasma CX157 ([3]; single dose 40 mg, 8 h): 1.8 ng/mL | Plasma CX157 range ([3]; single dose 60 mg, n = 3, 2 h): 7.6 to 158 ng/mL | Plasma CX157 range ([3]; single dose 60 mg, n = 3, 5 h): 3.6 to 67.3 ng/mL | Plasma CX157 range ([3]; single dose 60 mg, n = 3, 8 h): 3.4 to 14.7 ng/mL | Plasma CX157 range ([3]; single dose 60 mg, n = 3, 12 h): 1.8 to 11.1 ng/mL | Plasma CX157 range ([3]; single dose 80 mg, n = 4, 2 h): 70.7 to 183 ng/mL | Plasma CX157 range ([3]; single dose 80 mg, n = 4, 5 h): 13.5 to 70.2 ng/mL | Plasma CX157 range ([3]; single dose 80 mg, n = 4, 8 h): 5.7 to 15.4 ng/mL | Plasma CX157 ([3]; single dose 80 mg, 12 h): 16.6 ng/mL | overall incidence of AEs [4]: 13.3% | serious adverse events or deaths [4]: No serious adverse events (AEs) or deaths occurred | EC50 [5]: 55.4 nM | n (exponent of sigmoid Emax model) ([5]; Emax model fit, all subjects, doses and time points): 1.0 | Emax ([5]; read-out: Emax (maximum inhibiting response)): 80.7%

CCS(=O)(=O)Oc1ccc2c(C)c(C)c(=O)oc2c1 [esuprone]
correlation between plasma drug levels and brain MAO-A inhibition [6]: no correlation observed
